Tests used:
[1] = Example 8: 1-MCP headspace release from cured coating with varying amounts of liquid water; format: physicochemical; details: 4.0 wt-% 1-MCP/c/α-CD coating, 5 cm x 10 cm, 250 mL bottle
Text: A 4.0 wt-% 1-MCP/c/α-CD coating blend was made according to the technique of Example 3. A 20 cm by 20 cm polyethylene extrusion coated paper sheet was coated with the mixture using the technique of Example 2. A paper cutter was used to cut nine, 5 cm by 10 cm rectangles from the sheet. The cut, coated rectangles were passed by hand about 10 cm beneath a medium pressure mercury arc lamp operating at 79 watts per cm. After 1.5 seconds exposure to the lamp, the sample was removed. The cured sample was allowed to sit on a laboratory bench overnight coating side down.
Each cured sample was placed in a 250 mL serum bottle. Each bottle was sealed with a TEFLON® faced silicone septum. The amount of liquid water that would, in vapor form, correspond to 100% relative humidity (RH) at 20° C. (provided at http://hyperphysics.phy-astr.gsu.edu/hbase/kinetic/vappre.html#c) is 17.3 g/m^3, or 17.3 g per 1000 L. The density of water at 20° C. is 0.9982 g/mL. Thus, at 20° C., 4.3 μL, of liquid water added to an enclosed volume of 250 mL and containing no other water will vaporize to give 100% RH. Our laboratory facility temperature was 20° C.±5° C.
Three of the bottles were injected with 10 μL, of deionized water, three with 20 μL of deionized water, and three with 50 μL of deionized water. […] The headspace of each bottle was analyzed for 1-MCP at 2 hours, 4 hours, 8 hours, 24 hours, and 48 hours after the injection of water, wherein the headspace analysis was conducted using the analytical technique employed in Example 3.

[2] = cited from earlier work
[3] = Example 1: 1-MCP headspace release from UV-cured isobornyl acrylate coating with 1-MCP/c/α-CD on PET film (GC-FID); format: physicochemical; details: 1 cm x 1 cm cured coated square, 250 mL bottle
Procedure: A cyclodextrin inclusion complex is formed from α-cyclodextrin and 1-methyl cyclopropene (1-MCP) using the technique described by Neoh, T. L. et al., J. Agric. Food Chem. 2007, 55, 11020-11026 “Kinetics of Molecular Encapsulation of 1-Methylcyclopropene into α-Cyclodextrin.” The inclusion complex is termed “1-MCP/c/α-CD.” A 500 mL bottle is charged with 97.0 g of isobornyl acrylate, 1.0 g of hexanediol diacrylate, 1.0 g of 1-MCP/c/α-CD, and 1.0 g of […] (IRGACURE® 184, obtained from Ciba Specialty Chemicals Corp. of Tarrytown, N.Y.). The bottle is firmly capped and the components are mixed by shaking the bottle briefly by hand.
About 2 mL of the mixture is removed with a metered dropper and dispensed on an 8.5 inch by 11 inch PET film and drawn down using a metering rod (Mayer rod) having a delivered coating thickness of 25 microns. Then the coated PET film is placed on a flat surface approximately 5 cm beneath a medium pressure mercury arc lamp operating at 200 watts per inch (79 watts per cm). After 30 seconds under the lamp, the film is removed. A silicone coated PET sheet (about 50 microns thick) is placed over the cured coating and allowed to sit on a laboratory bench overnight.
A die cutter is used to cut a 1 cm by 1 cm square of the coated portion of the sheet. […] Headspace concentrations of 1-MCP are measured after 1 hour following introduction of the coated square into bottle. The 1-MCP headspace concentration is quantified using gas chromatography by removing 1 mL of gas from the sample bottle using a gas sampling valve interfaced directly to a GC column having FID detector.
Then 50 μl of deionized water is injected into the jar. […] The sealed jar is allowed to sit on the lab bench for one hour after the injection of water, then a second headspace sample is analyzed. A final headspace sample is analyzed 24 hours after the injection of water. At 1 hour after injection of the water, 0.5 ppm of 1-MCP is measured in the headspace. After 24 hours, 0.5 ppm of 1-MCP is measured in the headspace.

For `CC1=CC1` [1-MCP, 1-methylcyclopropene], the “Headspace concentration of 1-MCP, average” value ([1]; 10 μL H2O, 2 hr) was 1.3 ppm (v/v), the “Headspace concentration of 1-MCP, average” value ([1]; 10 μL H2O, 4 hr) was 2.5 ppm (v/v) and the “Headspace concentration of 1-MCP, average” value ([1]; 10 μL H2O, 8 hr) was 3.8 ppm (v/v). The “Headspace concentration of 1-MCP, average” value ([1]; 10 μL H2O, 24 hr) was 7.1 ppm (v/v), the “Headspace concentration of 1-MCP, average” value ([1]; 10 μL H2O, 48 hr) was 10.0 ppm (v/v) and the “Headspace concentration of 1-MCP, average” value ([1]; 20 μL H2O, 2 hr) was 2.6 ppm (v/v). For the same compound, the “Headspace concentration of 1-MCP, average” value ([1]; 20 μL H2O, 4 hr) was 5.8 ppm (v/v), the “Headspace concentration of 1-MCP, average” value ([1]; 20 μL H2O, 8 hr) was 9.2 ppm (v/v) and the “Headspace concentration of 1-MCP, average” value ([1]; 20 μL H2O, 24 hr) was 15.7 ppm (v/v). For the same compound, the “Headspace concentration of 1-MCP, average” value ([1]; 20 μL H2O, 48 hr) was 20.5 ppm (v/v), the “Headspace concentration of 1-MCP, average” value ([1]; 50 μL H2O, 2 hr) was 8.7 ppm (v/v) and the “Headspace concentration of 1-MCP, average” value ([1]; 50 μL H2O, 4 hr) was 18.6 ppm (v/v). The “Headspace concentration of 1-MCP, average” value ([1]; 50 μL H2O, 8 hr) was 30.8 ppm (v/v), the “Headspace concentration of 1-MCP, average” value ([1]; 50 μL H2O, 24 hr) was 55.3 ppm (v/v) and the “Headspace concentration of 1-MCP, average” value ([1]; 50 μL H2O, 48 hr) was 63.0 ppm (v/v). The 1-MCP remained complexed ([2]; 1-MCP/c/α-CD, end of the experiments) was ~83.4%, the “total complexed 1-MCP dissociated at the end of the experiments, average” value ([2]; 1-MCP/c/α-CD, humidity-triggered dissociation) was ~17.6% and the “complexed 1-MCP released from 1-MCP/c/α-CD” value ([2]; 100% relative humidity) was “less than 20%”. The “Headspace concentration of 1-MCP” value ([3]; 1 hour after injection of 50 μl water) was 0.5 ppm, the “Headspace concentration of 1-MCP” value ([3]; 24 hours after injection of 50 μl water) was 0.5 ppm and the “Headspace concentration of 1-MCP” value ([3]; no water added, 1 hour) was “No measurable concentration”.
